Data from US20240368092A1, “2,4-Dihydro-3H-1,2,4-Triazol-3-One P2X7 Antagonists” (Breye Therapeutics ApS, priority 2021, published 2024).

Experiments:
Format in all cases: cell-based
human P2X7 channel = biological target: T1, human P2X7 channel (Homo sapiens, UniProt Q99572); experiment: human P2X7 channel assay by automated patch-clamp (QPatch 16X); conditions: HEK-293 cells expressing P2X7; current evoked by 100 microM BzATP; whole-cell, held at -80 mV; read-out: human Q-Patch (activity range)
T1 construct: expressed in transfected cells; host or cells: HEK-293
T1 sequence (Q99572 1-595): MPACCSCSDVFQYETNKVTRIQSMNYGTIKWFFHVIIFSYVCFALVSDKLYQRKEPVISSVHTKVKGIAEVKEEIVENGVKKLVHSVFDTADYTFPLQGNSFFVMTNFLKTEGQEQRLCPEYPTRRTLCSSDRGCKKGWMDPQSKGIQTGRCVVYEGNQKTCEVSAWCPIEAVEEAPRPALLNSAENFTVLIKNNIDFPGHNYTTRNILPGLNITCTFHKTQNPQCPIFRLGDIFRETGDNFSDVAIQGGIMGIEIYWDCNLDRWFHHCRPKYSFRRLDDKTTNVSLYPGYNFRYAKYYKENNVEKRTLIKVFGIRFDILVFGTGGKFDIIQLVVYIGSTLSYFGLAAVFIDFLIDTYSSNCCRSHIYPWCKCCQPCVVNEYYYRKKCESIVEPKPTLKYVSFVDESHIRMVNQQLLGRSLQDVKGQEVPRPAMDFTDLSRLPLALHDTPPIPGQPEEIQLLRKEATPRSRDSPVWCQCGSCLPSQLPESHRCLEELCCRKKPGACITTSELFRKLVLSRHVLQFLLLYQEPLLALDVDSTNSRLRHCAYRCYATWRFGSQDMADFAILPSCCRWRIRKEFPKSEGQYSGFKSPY
In short: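 Whole-cell patch clamp on HEK-293 cells expressing P2X7, room temperature, held at −80 mV, CsF internal and NaCl external (pH 7.4). Currents evoked by 100 microM BzATP, four controls then with compound at 1, 10, 100 and 1000 nM; peak inward current normalized, IC50 from dose-response fit, reported as potency bins.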

humanP2X7 = biological target: T2, humanP2X7 (Homo sapiens, UniProt Q99572); experiment: P2X7 channel calcium-influx assay (Fluo-8, FLIPR TETRA), human P2X7; conditions: HEK-293 cells stably transfected with P2X7; Bz-ATP at EC80; low divalent cation buffer; read-out: humanP2X7 (activity range)
T2 construct: expressed in transfected cells; host or cells: HEK-293
T2 sequence (Q99572 1-595): T1 sequence (Q99572 1-595)
In short: (§1)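 HEK-293 cells stably expressing the respective species' P2X7, Fluo-8 NW loaded 1 h at RT in low divalent buffer (0.3 mM Ca2+, 0 mM Mg2+). Compound preincubated 5 min, then Bz-ATP at EC80; FLIPR calcium influx over 3 min. IC50 from % inhibition relative to reference antagonist A438079, reported as potency bins.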

mouseP2X7 = biological target: T3, mouseP2X7 (Mus musculus, UniProt Q9Z1M0); experiment: P2X7 channel calcium-influx assay (Fluo-8, FLIPR TETRA), mouse P2X7; conditions: HEK-293 cells stably transfected with P2X7; Bz-ATP at EC80; low divalent cation buffer; read-out: mouseP2X7 (activity range)
T3 construct: expressed in transfected cells; host or cells: HEK-293
T3 sequence (Q9Z1M0 1-595): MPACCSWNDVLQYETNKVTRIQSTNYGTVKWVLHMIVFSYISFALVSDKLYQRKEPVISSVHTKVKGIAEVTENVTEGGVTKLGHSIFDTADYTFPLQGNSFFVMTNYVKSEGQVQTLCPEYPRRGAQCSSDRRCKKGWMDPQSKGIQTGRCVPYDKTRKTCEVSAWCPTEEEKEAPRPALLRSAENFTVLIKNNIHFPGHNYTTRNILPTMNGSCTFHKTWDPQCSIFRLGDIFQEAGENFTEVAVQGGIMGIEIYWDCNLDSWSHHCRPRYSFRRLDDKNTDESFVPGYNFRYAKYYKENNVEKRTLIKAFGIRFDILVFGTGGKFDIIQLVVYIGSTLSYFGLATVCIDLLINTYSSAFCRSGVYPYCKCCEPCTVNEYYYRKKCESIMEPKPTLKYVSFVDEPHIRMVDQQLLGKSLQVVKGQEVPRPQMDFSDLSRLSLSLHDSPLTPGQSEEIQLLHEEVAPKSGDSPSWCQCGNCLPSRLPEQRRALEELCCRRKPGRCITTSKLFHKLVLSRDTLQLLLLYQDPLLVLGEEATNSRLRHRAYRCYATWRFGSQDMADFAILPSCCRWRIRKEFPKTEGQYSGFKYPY
In short: as §1

ratP2X7 = biological target: T4, ratP2X7 (Rattus norvegicus, UniProt Q64663); experiment: P2X7 channel calcium-influx assay (Fluo-8, FLIPR TETRA), rat P2X7; conditions: HEK-293 cells stably transfected with P2X7; Bz-ATP at EC80; low divalent cation buffer; read-out: ratP2X7 (activity range)
T4 construct: expressed in transfected cells; host or cells: HEK-293
T4 sequence (Q64663 1-595): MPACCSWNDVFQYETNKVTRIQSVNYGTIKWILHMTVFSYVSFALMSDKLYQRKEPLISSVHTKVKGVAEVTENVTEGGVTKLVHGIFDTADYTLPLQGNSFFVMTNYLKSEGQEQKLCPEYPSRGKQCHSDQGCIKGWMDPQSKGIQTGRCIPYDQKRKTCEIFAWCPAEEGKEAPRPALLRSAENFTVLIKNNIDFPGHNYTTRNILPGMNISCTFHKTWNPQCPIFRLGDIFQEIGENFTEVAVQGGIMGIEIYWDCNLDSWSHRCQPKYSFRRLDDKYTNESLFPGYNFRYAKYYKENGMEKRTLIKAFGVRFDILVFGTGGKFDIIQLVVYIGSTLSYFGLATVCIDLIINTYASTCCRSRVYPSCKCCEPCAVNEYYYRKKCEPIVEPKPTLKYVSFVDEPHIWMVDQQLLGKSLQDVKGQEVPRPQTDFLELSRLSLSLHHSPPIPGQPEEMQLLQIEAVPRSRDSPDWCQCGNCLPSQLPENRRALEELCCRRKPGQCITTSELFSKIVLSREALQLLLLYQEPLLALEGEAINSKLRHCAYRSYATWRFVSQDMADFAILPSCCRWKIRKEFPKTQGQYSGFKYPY
In short: as §1

Structure (SMILES)	IC50 (human P2X7 channel) [nM]	IC50 (humanP2X7) [nM]	IC50 (mouseP2X7) [nM]	IC50 (ratP2X7) [nM]
Cn1nc(Cc2ccccc2F)n(CCC2CCC(F)(F)CC2)c1=O [Example 46, 4-(2-(4,4-difluorocyclohexyl)ethyl)-5-(2-fluorobenzyl)-2-methyl-2,4-dihydro-3H-1,2,4-triazol-3-one]	1000 to 10000	1000 to 10000	1000 to 10000	200 to 1000
Cn1nc(Cc2ccccc2C(F)(F)F)n(CC2CCC3(CC2)CC3)c1=O [Example 48, 2-methyl-4-(spiro[2.5]octan-6-ylmethyl)-5-(2-(trifluoromethyl)benzyl)-2,4-dihydro-3H-1,2,4-triazol-3-one]	100 to 1000	200 to 1000	1000 to 10000	< 200
Cn1nc(Cc2ccccc2C(F)(F)F)n(CCC2CCC(C)(C)CC2)c1=O [Example 49, 4-(2-(4,4-dimethylcyclohexyl)ethyl)-2-methyl-5-(2-(trifluoromethyl)benzyl)-2,4-dihydro-3H-1,2,4-triazol-3-one]	1000 to 10000	1000 to 10000	10000 to 30000	10000 to 30000
Cn1nc(Cc2ccccc2F)n(CC2CCC(C(F)(F)F)CC2)c1=O (stereo not drawn) [Example 51, 5-(2-fluorobenzyl)-2-methyl-4-((4-(trifluoromethyl)cyclohexyl)methyl)-2,4-dihydro-3H-1,2,4-triazol-3-one]	100 to 1000	200 to 1000	1000 to 10000	< 200
Cn1nc(Cc2ccc(F)cc2Cl)n(CC2CCC(C(F)(F)F)CC2)c1=O (stereo not drawn) [Example 52, 5-(2-chloro-4-fluorobenzyl)-2-methyl-4-((4-(trifluoromethyl)cyclohexyl)methyl)-2,4-dihydro-3H-1,2,4-triazol-3-one]	100 to 1000	200 to 1000	1000 to 10000	< 200
Cn1nc(Cc2c(F)cccc2Cl)n(CCO)c1=O [Example 53, 5-(2-chloro-6-fluorobenzyl)-4-(2-hydroxyethyl)-2-methyl-2,4-dihydro-3H-1,2,4-triazol-3-one]	1000 to 10000	10000 to 30000	10000 to 30000	10000 to 30000
Cn1nc(Cc2ccccc2Cl)n(CC2CCCCCC2)c1=O [Example 55, 5-[(2-chlorophenyl)methyl]-4-(cycloheptylmethyl)-2-methyl-2,4-dihydro-3H-1,2,4-triazol-3-one]	100 to 1000	200 to 1000	1000 to 10000	< 200
Cn1nc(Cc2c(F)cccc2Cl)n(CC2(C)CCCCCC2)c1=O [Example 56, 5-[(2-chloro-6-fluorophenyl)methyl]-2-methyl-4-[(1-methylcycloheptyl)methyl]-2,4-dihydro-3H-1,2,4-triazol-3-one]	1000 to 10000	1000 to 10000	10000 to 30000	1000 to 10000
CCn1nc(CC2CCCCCC2)n(Cc2c(F)cccc2Cl)c1=O [Example 60, 4-[(2-chloro-6-fluorophenyl)methyl]-5-(cycloheptylmethyl)-2-ethyl-2,4-dihydro-3H-1,2,4-triazol-3-one]	100 to 1000	200 to 1000	1000 to 10000	< 200
O=c1n(CC(F)(F)F)nc(CC2CCCCCC2)n1Cc1c(F)cccc1Cl [Example 61, 4-[(2-chloro-6-fluorophenyl)methyl]-5-(cycloheptylmethyl)-2-(2,2,2-trifluoroethyl)-2,4-dihydro-3H-1,2,4-triazol-3-one]	100 to 1000	200 to 1000	1000 to 10000	< 200
CCn1nc(Cc2c(F)cccc2Cl)n(CC2CCC(F)(F)C2)c1=O (stereo not drawn) [Example 65, 5-[(2-chloro-6-fluorophenyl)methyl]-4-[(3,3-difluorocyclopentyl)methyl]-2-ethyl-2,4-dihydro-3H-1,2,4-triazol-3-one]	1000 to 10000	1000 to 10000	10000 to 30000	200 to 1000
O=c1n(CC2CC2)nc(Cc2c(F)cccc2Cl)n1CC1CCC(F)(F)C1 (stereo not drawn) [Example 66, 5-[(2-chloro-6-fluorophenyl)methyl]-2-(cyclopropylmethyl)-4-[(3,3-difluorocyclopentyl)methyl]-2,4-dihydro-3H-1,2,4-triazol-3-one]	100 to 1000	200 to 1000	1000 to 10000	< 200

Results, then the molecule that gave them:

IC50 (human P2X7 channel) [nM]	IC50 (humanP2X7) [nM]	IC50 (mouseP2X7) [nM]	IC50 (ratP2X7) [nM]	Structure (SMILES)
100 to 1000	200 to 1000	1000 to 10000	< 200	Cn1nc(Cc2ccccc2F)n(CC2CCC3(CC2)CC3)c1=O [Example 47, 5-(2-fluorobenzyl)-2-methyl-4-(spiro[2.5]octan-6-ylmethyl)-2,4-dihydro-3H-1,2,4-triazol-3-one]
< 10	< 200	< 200	< 200	O=c1n(Cc2ccccc2)nc(Cc2c(F)cccc2Cl)n1CC1CCC(F)(F)CC1 [Example 50, 2-benzyl-5-(2-chloro-6-fluorobenzyl)-4-((4,4-difluorocyclohexyl)methyl)-2,4-dihydro-3H-1,2,4-triazol-3-one]
10 to 100	< 200	< 200	< 200	O=c1n(CCC(F)(F)F)nc(Cc2c(F)cccc2Cl)n1CC1CCC(F)(F)CC1 [Example 57, 5-[(2-chloro-6-fluorophenyl)methyl]-4-[(4,4-difluorocyclohexyl)methyl]-2-(3,3,3-trifluoropropyl)-2,4-dihydro-3H-1,2,4-triazol-3-one]
10 to 100	< 200	< 200	< 200	O=c1n(CC(F)F)nc(Cc2c(F)cccc2Cl)n1CC1CCC(F)(F)CC1 [Example 58, 5-[(2-chloro-6-fluorophenyl)methyl]-4-[(4,4-difluorocyclohexyl)methyl]-2-(2,2-difluoroethyl)-2,4-dihydro-3H-1,2,4-triazol-3-one]
< 10	< 200	< 200	< 200	O=c1n(CC(F)(F)F)nc(Cc2ccccc2Cl)n1CC1CCC(F)(F)CC1 [Example 62, 5-[(2-chlorophenyl)methyl]-4-[(4,4-difluorocyclohexyl)methyl]-2-(2,2,2-trifluoroethyl)-2,4-dihydro-3H-1,2,4-triazol-3-one]
10 to 100	< 200	200 to 1000	< 200	CCn1nc(Cc2ccccc2Cl)n(CC2CCC(F)(F)CC2)c1=O [Example 63, 5-[(2-chlorophenyl)methyl]-4-[(4,4-difluorocyclohexyl)methyl]-2-ethyl-2,4-dihydro-3H-1,2,4-triazol-3-one]
